Assay results: patent US20140057284A1, “PHOTOLUMINESCENT MOLECULAR COMPLEX AND METHOD FOR DETERMINING OF THE CONCENTRATION OF SAID MOLECULAR COMPLEX” (priority 2011, published 2014)

molecular target: catalytic subunit of cAMP-dependent protein kinase (PKAc) (Homo sapiens, UniProt P17612); experiment: Binding affinity to PKAc; conditions: PKAc and some other PKs of the AGC group; in words

SMILES	affinity of binding to PKAc
N=C(N)NCCC[C@@H](NC(=O)CCCCCNC(=O)c1ccc(-c2ccnc(N)n2)s1)C(=O)NCCCCCC(=O)N[C@H](CCCNC(=N)N)C(=O)N[C@H](CCCNC(=N)N)C(=O)N[C@H](CCCNC(=N)N)C(=O)N[C@H](CCCNC(=N)N)C(=O)N[C@H](CCCNC(=N)N)C(=O)N[C@H](CCCNC(=N)N)C(=O)N[C@H](CCCCN)C(N)=O [ARC-668]	subnanomolar or low nanomolar
N=C(N)NCCC[C@@H](NC(=O)CCCCCNC(=O)c1ccc(-c2ccnc(N)n2)s1)C(=O)NCCCCCC(=O)N[C@H](CCCNC(=N)N)C(=O)N[C@H](CCCNC(=N)N)C(=O)N[C@H](CCCNC(=N)N)C(=O)N[C@H](CCCNC(=N)N)C(=O)N[C@H](CCCNC(=N)N)C(=O)N[C@H](CCCNC(=N)N)C(=O)N[C@H](CCCCNc1ccc([N+](=O)[O-])c2nonc12)C(N)=O [ARC-676]	subnanomolar or low nanomolar
N=C(N)NCCC[C@@H](NC(=O)CCCCCNC(=O)c1ccc(-c2ccnc(N)n2)[se]1)C(=O)NCCCCCC(=O)N[C@H](CCCNC(=N)N)C(=O)N[C@H](CCCNC(=N)N)C(=O)N[C@H](CCCNC(=N)N)C(=O)N[C@H](CCCNC(=N)N)C(=O)N[C@H](CCCNC(=N)N)C(=O)N[C@H](CCCNC(=N)N)C(=O)N[C@H](CCCCN)C(N)=O [ARC-1138]	subnanomolar or low nanomolar

Second part, the compound after the results:

affinity of binding to PKAc	SMILES
subnanomolar or low nanomolar	N=C(N)NCCC[C@@H](NC(=O)[C@@H](CCCNC(=N)N)NC(=O)CCCCCNC(=O)[C@@H](CCCCN)NC(=O)CCCCCNC(=O)c1ccc(-c2ccncc2)s1)C(N)=O [ARC-1121]
subnanomolar or low nanomolar	N=C(N)NCCC[C@@H](NC(=O)CCCCCNC(=O)c1ccc(-c2ncnc3[nH]cnc23)s1)C(=O)NCCCCCC(=O)N[C@H](CCCNC(=N)N)C(=O)N[C@H](CCCNC(=N)N)C(=O)N[C@H](CCCNC(=N)N)C(=O)N[C@H](CCCNC(=N)N)C(=O)N[C@H](CCCNC(=N)N)C(=O)N[C@H](CCCNC(=N)N)C(=O)N[C@H](CCCCN)C(N)=O [ARC-1132]
subnanomolar or low nanomolar	Cc1nccc(-c2ccc(C(=O)NCCCCCC(=O)N[C@H](CCCNC(=N)N)C(=O)NCCCCCC(=O)N[C@H](CCCNC(=N)N)C(=O)N[C@H](CCCNC(=N)N)C(=O)N[C@H](CCCNC(=N)N)C(=O)N[C@H](CCCNC(=N)N)C(=O)N[C@H](CCCNC(=N)N)C(=O)N[C@H](CCCNC(=N)N)C(=O)N[C@H](CCCCN)C(N)=O)s2)n1 [ARC-1123]
subnanomolar or low nanomolar	N=C(N)NCCC[C@@H](NC(=O)CCCCCNC(=O)c1ccc(-c2ccncn2)s1)C(=O)NCCCCCC(=O)N[C@H](CCCNC(=N)N)C(=O)N[C@H](CCCNC(=N)N)C(=O)N[C@H](CCCNC(=N)N)C(=O)N[C@H](CCCNC(=N)N)C(=O)N[C@H](CCCNC(=N)N)C(=O)N[C@H](CCCNC(=N)N)C(=O)N[C@H](CCCCN)C(N)=O [ARC-1129]
subnanomolar or low nanomolar	N=C(N)NCCC[C@@H](NC(=O)CCCCCNC(=O)c1ccc(-c2ncnc3[nH]ccc23)s1)C(=O)NCCCCCC(=O)N[C@H](CCCNC(=N)N)C(=O)N[C@H](CCCNC(=N)N)C(=O)N[C@H](CCCNC(=N)N)C(=O)N[C@H](CCCNC(=N)N)C(=O)N[C@H](CCCNC(=N)N)C(=O)N[C@H](CCCNC(=N)N)C(=O)N[C@H](CCCCN)C(N)=O [ARC-1135]

molecular target: PKAc (Homo sapiens, UniProt P17612); experiment: Measurement of dissociation kinetics of inhibitor-kinase complexes with ARC-1063; assay type: binding; conditions: inhibitor 5-10 nM, PKAc 10 nM, 27° C., ARC-1063 100-300 nM
Protocol: Measurements of dissociation kinetics of non-labeled inhibitors from the inhibitor-kinase complexes (residence time) were carried out by mixing the solution of the examined inhibitor (5-10 nM) with PKAc (10 nM), and incubation of the solution for 15 min at 27° C., followed by addition of a high concentration of the luminescent probe ARC-1063 (final concentration of 100-300 nM), and measurement of the luminescence signal at 5 s time intervals (FIG. 10). The collected data were fitted to the first-order kinetic model yielding the dissociation rate constants for the examined inhibitors.

SMILES	Dissociation half-lives of PKAc complexes
CN[C@@H]1C[C@H]2O[C@@](C)([C@@H]1OC)n1c3ccccc3c3c4c(c5c6ccccc6n2c5c31)C(=O)NC4 [staurosporine]	12 s

test system: PKAc in living C9H6 cells; experiment: Monitoring of kinase activity in living cells loaded with ARC-1139; assay type: cell-based; conditions: H89 100 μM added after Forskolin
Protocol: CHO, C9H6 and HEK cells were cultured in F12 Nutrient Mixture supplemented with 10% fetal bovine serum, 2 mM L-glutamine, 100 U/ml penicillin and 100 μg/ml streptomycin at 37° C. in humidified atmosphere containing 5% CO2. In case of C9H6 cells, 300 μg/ml of Zeocine™ and 800 μg/ml of Geneticin® were additionally introduced to the nutrient mixture. Cells were seeded to 96-well plates (for plate reader experiments) and grown to 60%-80% confluency. The medium was replaced with fresh serum-free medium containing the luminescent probe ARC-1139 (10 μM) and incubated for 1 hour at 37° C. Subsequently, the cells were washed three times with PBS and analyzed on a PheraStar platereader with TRF optic modules [ex. 337(50) nm, em. 675(50) and 620(20) nm] using the time-resolved fluorescence measurement mode. Forskolin (final concentration of 25 μM) and H89 (final concentration of 100 μM) were added to the cells during the measurement (after 3 min and 7 min from the start of data acquisition, respectively)

SMILES	luminescence from live cells loaded with ARC-1139 after Forskolin
O=S(=O)(NCCNC/C=C/c1ccc(Br)cc1)c1cccc2cnccc12 [H89]	signal decreased
